One series has as its system male mice. As to the kind of experiment: Acute toxicity, intraperitoneal (LD0, LD30, LD60, LD100). The series is classed as in vivo. The note with it: intraperitoneal. On the procedure: (§1) The results of toxicological and neuropsychopharmacological tests which were carried out with the products according to the invention have been summarized below. In these tests, solutions of the said products in distilled water were administered intraperitoneally in a volume of 20 ml/kg to male mice and in a volume of 5 ml/kg to male rats.

Series [1] deals with mice. The series can be described thus: Overall behavior and reactivities in mice. The series is classed as in vivo. The note with it: i.p. As for the experimental part:
as §1
(§2) Groups of 3 animals are observed before and then 0.25 h, 0.50 h, 1 h, 2 h, 3 h and 24 h after the administration of CRL 41 378. The following observations are made:
(§3) Groups of 3 animals are observed before and then 0.25 h, 0.50 h, 1 h, 2 h, 3 h and 24 h after the administration of CRL 41 329.

Another series has as its system rats. As to the kind of experiment: Overall behavior and reactivities in rats. The series is classed as in vivo. The note with it: i.p. On the procedure:
as §1, §2, §3

Series [2] has as its system hypothermia, righting behavior and stereotypies induced by apomorphine. The series can be described thus: Interaction with apomorphine in mice. The note with it: i.p. The series is classed as in vivo. As for the experimental part: as §1
CRL 41 378 is administered to groups of 6 mice 30 minutes before the subcutaneous injection of 1 or 16 mg/kg of apomorphine.

The subject of series [3] is hypothermia and ptosis induced by reserpine. As to the kind of experiment: Interaction with reserpine. The series is classed as in vivo. The note with it: mice, i.p.; reserpine 2.5 mg/kg. On the procedure: as §1
Four hours after the intraperitoneal injection of 2.5 mg/kg of reserpine, groups of 12 mice receive CRL 41 378.

Series [4] concerns hypothermia, trembling and peripheral cholinergic symptoms induced by oxotremorine. As to the kind of experiment: Interaction with oxotremorine. The series is classed as in vivo. The note with it: mice, i.p.; oxotremorine 0.5 mg/kg. As for the experimental part: as §1
CRL 41 378 is administered to groups of 6 mice 0.5 h before the intraperitoneal injection of 0.5 mg/kg of oxotremorine.

Series [5] has as its system mice. As to the kind of experiment: Electric shock. The series is classed as in vivo. The note with it: i.p. On the procedure:
as §1
The test is performed on groups of 10 mice 30 minutes after the administration of CRL 41 378.

Series [6] has as its system mice. As to the kind of experiment: Spontaneous motility (actimeter). The series is classed as in vivo. The note with it: i.p. As for the experimental part:
as §1
0.5 h after they have received CRL 41 378, the mice (6 per dose, 12 control animals) are placed in an actimeter, where their motility is recorded for 30 minutes.

The subject of series [7] is mice. As to the kind of experiment: Intergroup aggressiveness. The series is classed as in vivo. The note with it: mice, i.p. On the procedure:
as §1
After they have stayed for 3 weeks in the two halves of a cage divided by an opaque partition, groups of 3 mice receive CRL 41 378. Half an hour later, the two groups from the same cage are brought together by removal of the partition and the number of fights which occur in 10 minutes is noted.

Series [8] relates to mice. As to the kind of experiment: Motility reduced by habituation to the enclosure. The series is classed as in vivo. The note with it: i.p. As for the experimental part:
as §1
After they have stayed in the actimeters for 18 hours, the mice (6 per dose, 12 control animals) receive CRL 41 378. They are immediately returned to their respective enclosures and, half an hour later, their motility is recorded for 30 minutes.

The subject of series [9] is mice. The series can be described thus: Motility reduced by hypoxic aggression (acute hypobaric anoxia). The series is classed as in vivo. The note with it: i.p. On the procedure: In these tests, solutions of the said products in distilled water were administered intraperitoneally in a volume of 20 ml/kg to male mice and in a volume of 5 ml/kg to male rats.
In series [10] the test system is mice. As to the kind of experiment: Behavioral despair (forced immersion). The series is classed as in vivo. The note with it: mice which have been forcibly immersed, i.p.; hydrochloride. As for the experimental part:
as §1
Half an hour after they have received CRL 41 378, groups of 6 mice are placed in a beaker filled with water to a height of 6 cm. The total period of immobility between the 2nd and 6th minutes following immersion is noted.

The subject of series [11] is central nervous system (CNS). As to the kind of experiment: Neuropsychopharmacological profile (conclusions of the tests). The series is classed as in vivo, mice and rats. As for the experimental part: as §1

Results on one compound are retold here after patent US4774248A, “Methods of treating depression and depressive states using 5-phenyl-1,4,5,6-tetrahydropyrimidine derivatives” (priority 1985, dated 1988).

Each structure is given as a SMILES string. “Also recorded” adds a separate entry of the source.

Take `CN1C=NCC(c2ccccc2)C1.Cl` (stereo not drawn) [CRL 41 337, 1-methyl-5-phenyl-1,4,5,6-tetrahydropyrimidine hydrochloride]: in the series with male mice, the “LD0 (maximum non-lethal dose)” value is given as “greater than 256 mg/kg”, the LD60 result is listed as “about 500 mg/kg” and the “LD100 (minimum dose lethal to all the animals)” value was “less than or equal to 1000 mg/kg”. Further, in the series with mice [1] (128 mg/kg), the “overall behavior and reactivities” value was “moderate hypothermia (-1.6 °C one hour after administration) for 3 h”. This compound also yielded a moderate hypothermia with mice [1] (128 mg/kg, one hour after administration) of -1.6 °C. For the same compound, the “overall behavior and reactivities” value in the series on mice [1] (2 to 32 mg/kg) was “no distinct modification of the behavior and reactivities compared with the control animals”. For the same compound, in the series on rats (1 and 4 mg/kg), the “overall behavior and reactivities” value is “no distinct modification of the behavior and reactivities compared with the control animals”. The “overall behavior and reactivities” value in the series with rats (16 and 64 mg/kg) was “mydriasis”. Also, in [2], the “action on hypothermia induced by apomorphine” value is “antagonism of the hypothermia induced by apomorphine, reserpine and oxotremorine”. In series [3], the “action on hypothermia induced by reserpine” value is “antagonism of the hypothermia induced by apomorphine, reserpine and oxotremorine”; the “action on ptosis induced by reserpine” value is “antagonism of the ptosis induced by reserpine”. The “action on hypothermia induced by oxotremorine” value in series [4] is “antagonism of the hypothermia induced by apomorphine, reserpine and oxotremorine”. Also, the “lethal effects of electric shock” value with mice [5] is “at a high dose, CRL 41 337 causes aggravation of the lethal effects of electric shock”. Also, the spontaneous motor activity result in the series with mice [6] is “a decrease in the motor activity”. Besides, the “intergroup aggressiveness (number of fights)” value in the series on mice [7] is listed as “a decrease in the intergroup aggressiveness”. Further, the “resumption in the motor activity of mice accustomed to their enclosure” value with mice [8] is on record as “a resumption in the motor activity of mice accustomed to their enclosure”. Besides, in the series with mice [9], the “motor recovery after acute hypobaric hypoxia” value is “at high doses, CRL 41 337 paradoxically causes an improvement in the motor recovery of mice after acute hypobaric hypoxia”. For the same compound, the period of immobility result in the series with mice [10] is recorded as “no modification of the period of immobility due to despair; also recorded: no effect on the immobility due to despair”. Further, in [11] (i.p.), the antidepressant effects result is given as “antidepressant effects”, the peripheral anticholinergic activity result is on record as “no anticholinergic action” and the stimulant effects entry was “no stimulation of the spontaneous motor activity”. Moreover, in series [11] (i.p., hydrochloride), the “peripheral α-adrenergic stimulant effects” value is recorded as “peripheral α-adrenergic stimulant effects; also recorded: mydriasis in rats” and the sedative effects result was “sedative effects; also recorded: hypothermia”. Further, the overall neuropsychopharmacological profile entry in series [11] (summary, hydrochloride) is listed as “acts principally as an antidepressant; also recorded: resemble those of β-adrenergic stimulants”.
